Assay results from patent publication EP0457243A1, “Novel tricyclic compounds” (priority 1990, dated 1991).
Like-named read-outs stand apart in the source and are kept apart here.

Legend:
C5BI/6J mice = assay: Mouse anxiolytic behavior model (two-compartment exploratory model); type: in vivo; set-up: % ACTIVITY DARK AREA W% / SHUTTLE ACTIVITY W% / LOCOMOTOR ACTIVITY (LIGHT AREA) W% / % ACTIVITY DARK AREA Mean ± SD: concentration or dose not given beside the values; conditions: for % ACTIVITY DARK AREA Mean ± SD / LATENCY (SEC) Mean ± SD / LOCOMOTOR ACTIVITY (LIGHT AREA) Mean ± SD / SHUTTLE ACTIVITY Mean ± SD / TIME DARK AREA (SEC) Mean ± SD: i.p., 15 min post-treatment, monitored for 10 minutes; for % ACTIVITY DARK AREA W% / LATENCY (SEC) W% / LOCOMOTOR ACTIVITY (LIGHT AREA) W% / SHUTTLE ACTIVITY W% / TIME DARK AREA (SEC) W%: percentage change from control
Procedure: In brief, the method involves determining whether a compound reduces the natural anxiety of mice in brightly-lit areas.
The following describes an in vivo method for determining anxiolytic activity of compounds of Formula I.
Naive male C5BI/6J mice, 18-20 g, are kept in groups of 10 mice in quarters controlled for sound, temperature and humidity. Food and water are available ad libitum. The mice are kept on a 12 hour light and 12 hour dark cycle, with lights on at 6:00 a.m. and off at 6:00 p.m. All experiments begin at least 7 days after arrival on site.
Briefly, the chamber consists of a plexiglass box (44 x 21 x 21 cm), divided into two chambers by a black plexiglass partition. The partition dividing the two chambers contains a 13 x 5 cm opening through which the mouse can easily pass. The dark chamber has […]. A fluorescent tube light (40 watt) placed above the chambers provides the only illumination. The Digiscan Animal Activity Monitor System RXYZCM16 (Omni-Tech Electronics) records the exploratory activity of the mice within the test chambers.
Prior to commencement of the study the mice are given 60 min to acclimatize to the laboratory environment. After a mouse receives an intraperitoneal (i.p.) injection of either test compound or vehicle it is returned to its home cage for a 15 min post-treatment period. The mouse is then placed in the center of the light chamber and monitored for 10 minutes.
(§1) Anxiolysis is seen as a general increase in exploratory activity in the lighted area. An increase in exploratory activity is relected by increased latency (the time for the mouse to move to the dark chamber when first placed in the center of the lighted area), increase in shuttle activity, increased or unaltered locomotor activity (number of grid lines crossed) and decreased time spent in the dark compartment.

BKW mice = conditions: 1 µ/g/kg i.p.
Procedure: Anxiolytic activity during withdrawal from drugs of abuse is determined by the mouse light/dark withdrawal anxiety test. This procedure utilizes the exploratory model described above to test for anxiolytic activity after administration and subsequent abrupt cessation of diazepam, alcohol, cocaine or nicotine treatments. A detailed description is set for in Example 13 of this application.
The following procedure describes a method to determine whether compounds of Formula I effect the anxiety that occurs after abruptly ceasing chronic treatment with drugs of abuse.
Naive male BKW mice (25-30 g) are caged in groups of ten in quarters controlled for sound, temperature and humidity. Food and water are available ad libitum. The mice are kept on a 12 hour light cycle and 12 hour dark cycle, with lights on at 6:00 a.m. and off at 6:00 p.m. All experiments begin at least 7 days after arrival on site.
as §1, with “Levels of anxiety are determined by the two-compartment exploratory model of Crawley and Goodwin (see Example 12). Anxiolysis” for “Anxiolysis”, “area),” for “area), increase in shuttle activity,”, “crossed), increased number of rears” for “crossed)”
Increased exploratory activity in the lighted area is induced by treating the mice for 14 days with alcohol (8.0 % w/v in drinking water), nicotine (0.1 mg/kg, i.p., twice daily), diazepam (10 mg/kg, i.p., twice daily), or cocaine (1.0 mg/kg, i.p., twice daily). Anxiolysis is assessed 1, 3, 7 and 14 days after commencement of the drug regime. The treatment is abruptly ceased and exploratory activity in the lighted area is determined 8, 24 and 48 hours thereafter. Vehicle or test compounds are administered during the withdrawl phase by intraperitoneal injection. Responses are represented as inhibition of the decrease in anxiolytic behavior after the alcohol, cocaine or nicotine treatment is ceased.

[1] = Toxicity observation after i.p. administration; type: in vivo; conditions: 10 mg/kg, over 90 minutes

Row | SMILES | % ACTIVITY DARK AREA Mean ± SD (C5BI/6J mice) [%] | LATENCY (SEC) Mean ± SD (C5BI/6J mice) [s] | LOCOMOTOR ACTIVITY (LIGHT AREA) Mean ± SD (C5BI/6J mice) | SHUTTLE ACTIVITY Mean ± SD (C5BI/6J mice) | TIME DARK AREA (SEC) Mean ± SD (C5BI/6J mice) [s] | % ACTIVITY DARK AREA W% (C5BI/6J mice) [%] | LATENCY (SEC) W% (C5BI/6J mice) [%] | LOCOMOTOR ACTIVITY (LIGHT AREA) W% (C5BI/6J mice) [%] | SHUTTLE ACTIVITY W% (C5BI/6J mice) [%] | TIME DARK AREA (SEC) W% (C5BI/6J mice) [%] | unusual effects observed [1] | also measured
1 | Cl.Nc1c(Cl)cc2c3c(cccc13)C(=O)N([C@@H]1CN3CCC1CC3)C2=O [(1), S-6-amino-5-chloro-2-(1-azabicyclo[2.2.2]oct-3-yl)-2,3-dihydro-1H-benz[de]isoquinoline-1,3-dione hydrochloride] | 37.6 ± 4.9 | 3.5 ± 0.5 | 1208.0 ± 86.4 | 42.0 ± 3.9 | 394.9 ± 32.8 | -54.0 | -28.6 | 41.0 | 37.3 | -26.9 | – | Crossings/ 5 Min in Light (BKW mice; alcohol withdrawal): 88.0±9.0; Latency (BKW mice; alcohol withdrawal): 9.0 ± 1.3 s; Rears/5 Min in Light (BKW mice; alcohol withdrawal): 86.0±9.0; Time in Dark (%) (BKW mice; alcohol withdrawal): 60.0±6.4%; Crossings/ 5 Min in Light (BKW mice; cocaine withdrawal): 135.±15.7; Latency (BKW mice; cocaine withdrawal): 28.7 ± 2.81 s; Rears/5 Min in Light (BKW mice; cocaine withdrawal): 101.±2.81; Time in Dark (%) (BKW mice; cocaine withdrawal): 22.5±2.4%; Crossings/ 5 Min in Light (BKW mice; diazepam withdrawal): 97.5±10.6; Latency (BKW mice; diazepam withdrawal): 34.0 ± 3.7 s; Rears/5 Min in Light (BKW mice; diazepam withdrawal): 89.2±9.1; Time in Dark (%) (BKW mice; diazepam withdrawal): 27.4±2.9%; Crossings/ 5 Min in Light (BKW mice; nicotine withdrawal): 94.0±10.1; Latency (BKW mice; nicotine withdrawal): 20.8 ± 2.4 s; Rears/5 Min in Light (BKW mice; nicotine withdrawal): 84.5±9.0; Time in Dark (%) (BKW mice; nicotine withdrawal): 29.0±3.1%
2 | I.Nc1c(Cl)cc2c3c(cccc13)C(=O)N([C@@H]1CN3CCC1CC3)C2=O [(2), S-6-amino-5-chloro-2-(1-azabicyclo[2.2.2]oct-3-yl)-2,3-dihydro-1H-benz[de]isoquinoline-1,3-dione hydrogeniodide] | 78.4 ± 1.8 | 8.1 ± 1.4 | 1602.4 ± 73.0 | 138.6 ± 9.1 | 498.4 ± 9.3 | -10.0 | 102.5 | 42.6 | 112.3 | -10.8 | – | –
3 | Cc1nccn1CC1CCc2c(c3ccccc3n2C)C1=O (stereo not shown) [Ondansetron, reference compound] | 78.5 ± 4.7 | 6.7 ± 1.5 | 1582.0 ± 77.8 | 121.0 ± 12.4 | 499.4 ± 14.8 | -13.1 | 4.7 | 52.6 | 182.7 | -12.8 | – | –
4 | Cl.Nc1cc2c3c(cccc3c1Cl)C(=O)N(C1CN3CCC1CC3)C2=O (stereo not shown) [RS-6-chloro-5-amino-2-(1-azabicyclo[2.2.2]oct-3-yl)-2,3-dihydro-1H-benz[de]isoquinoline-1,3-dione hydrochloride] | – | – | – | – | – | – | – | – | – | – | No unusual effects | –
5 | Cl.O=C1c2cccc3cccc(c23)C(=O)N1[C@@H]1CN2CCC1CC2 [S-2-(1-azabicyclo[2.2.2]oct-3-yl)-2,3-dihydro-1H-benz[de]isoquinoline-1,3-dione hydrochloride] | – | – | – | – | – | – | – | – | – | – | No unusual effects | –
6 | Cl.Nc1cc2c3c(cccc3c1Cl)C(=O)N([C@@H]1CN3CCC1CC3)C2=O [S-6-chloro-5-amino-2-(1-azabicyclo[2.2.2]oct-3-yl)-2,3-dihydro-1H-benz[de]isoquinoline-1,3-dione hydrochloride] | – | – | – | – | – | – | – | – | – | – | No unusual effects | –
